Measured values: ChEMBL document CHEMBL1201862, “PubChem BioAssay data set” (2004)
Calls of active or inactive are those of the source.

What was measured:
Nonstructural protein 1 = Nonstructural protein 1 (Influenza A virus, UniProt Q194T2); format: functional, Influenza A virus (A/California/07/2009(H1N1))
Estrogen receptor = target: T1, Estrogen receptor (Homo sapiens, UniProt P03372);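 note: potency for inhibiting coactivator peptide recruitment to the receptor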
T1 sequence (P03372 whole entry): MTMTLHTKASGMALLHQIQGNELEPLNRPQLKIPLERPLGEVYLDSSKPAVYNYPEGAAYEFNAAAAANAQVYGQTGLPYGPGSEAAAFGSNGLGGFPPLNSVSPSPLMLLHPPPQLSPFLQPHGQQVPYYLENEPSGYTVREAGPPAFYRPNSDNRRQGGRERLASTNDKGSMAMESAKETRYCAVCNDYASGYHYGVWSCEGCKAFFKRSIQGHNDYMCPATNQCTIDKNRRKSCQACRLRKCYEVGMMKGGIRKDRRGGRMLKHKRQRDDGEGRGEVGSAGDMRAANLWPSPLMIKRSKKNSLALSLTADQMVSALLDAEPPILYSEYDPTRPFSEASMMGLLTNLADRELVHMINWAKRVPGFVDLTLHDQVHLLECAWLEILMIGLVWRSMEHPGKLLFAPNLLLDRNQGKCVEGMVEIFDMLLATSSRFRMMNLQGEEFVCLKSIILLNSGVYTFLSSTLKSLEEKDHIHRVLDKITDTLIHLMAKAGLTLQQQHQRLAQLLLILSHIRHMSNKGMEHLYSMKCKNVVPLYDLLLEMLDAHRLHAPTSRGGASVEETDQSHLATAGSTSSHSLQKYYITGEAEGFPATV

[1] = target: T2, COUP transcription factor 2 (Homo sapiens, UniProt P24468); experiment: Luminescence-based cell-based high throughput dose response assay to identify inhibitors of COUP-TFII (NR2F2).; format: functional;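 note: HEK293 cells transiently cotransfected with COUP-TFII expression vector and reporter; luciferase reporter luminescence driven by COUP-TFII from the pX2-168 reporter plasmid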
T2 sequence (P24468 whole entry): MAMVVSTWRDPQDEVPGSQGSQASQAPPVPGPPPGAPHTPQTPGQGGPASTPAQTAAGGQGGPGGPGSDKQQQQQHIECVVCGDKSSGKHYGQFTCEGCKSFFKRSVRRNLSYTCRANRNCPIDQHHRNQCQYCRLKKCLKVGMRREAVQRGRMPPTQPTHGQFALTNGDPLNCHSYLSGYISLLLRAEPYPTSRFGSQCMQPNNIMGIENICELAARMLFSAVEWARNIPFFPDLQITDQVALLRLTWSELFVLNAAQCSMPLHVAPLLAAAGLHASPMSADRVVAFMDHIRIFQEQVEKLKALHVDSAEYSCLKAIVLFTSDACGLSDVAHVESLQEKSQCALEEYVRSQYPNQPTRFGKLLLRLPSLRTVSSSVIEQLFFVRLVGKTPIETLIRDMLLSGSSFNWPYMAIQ

[2] = viability inhibitors of stage V gametocytes – luminescence, dose response (AID 1117278); format: functional, cell-based;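 note: gametocytes exposed to compound for 24 hours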
[3] = viability loss in human Jurkat cells – cell-based, luminescence, cytotoxicity control for P. falciparum gametocyte viability project, dose response (AID 1117277); format: functional;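 note: potency reflects loss of cellular ATP meaning fewer viable cells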
[4] = HEK-293T cell viability reduction – luminescence, B-cell screen hits, cytotoxicity control for BCR NF-kB inhibitor project, dose response (AID 489021); format: functional, cell-based;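 note: HEK-293T cells carrying an NF-kB luciferase reporter; cells exposed to compound for about 14 hours before viability readout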
[5] = reduction of Shn3 3'UTR-driven luciferase in osteoblasts – cell-based, Clone20 osteoblasts, firefly luciferase, cherry-picked, dose response (AID 624132); format: functional;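 note: firefly luciferase luminescence from reporter carrying the Shn3 3'UTR in osteoblasts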
[6] = loss of viability in HepG2 cells – cell-based, CellTiter-Glo, cherry-picked, cytotoxicity control for Shn3 inhibitor project, dose response (AID 624134); format: functional
[7] = target: Induced myeloid leukemia cell differentiation protein Mcl-1 (Homo sapiens, UniProt Q07820); format: functional
Chain of Induced myeloid leukemia cell differentiation protein Mcl-1 (Q07820 whole entry): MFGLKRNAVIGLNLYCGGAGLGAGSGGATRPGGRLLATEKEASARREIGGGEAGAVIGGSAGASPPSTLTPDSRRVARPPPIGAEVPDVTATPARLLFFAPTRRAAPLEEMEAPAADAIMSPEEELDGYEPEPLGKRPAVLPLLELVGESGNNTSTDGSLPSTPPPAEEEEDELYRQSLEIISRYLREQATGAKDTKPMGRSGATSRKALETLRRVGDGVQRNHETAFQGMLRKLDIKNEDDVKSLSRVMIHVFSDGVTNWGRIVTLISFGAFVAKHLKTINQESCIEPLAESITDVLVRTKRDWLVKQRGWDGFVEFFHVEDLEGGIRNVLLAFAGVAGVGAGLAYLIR

[8] = target: T3, Mannose-6-phosphate isomerase (Homo sapiens, UniProt P34949); experiment: MPI inhibition at elevated mannose 6-phosphate – biochemical, fluorescence intensity, high mannose 6-phosphate, primary screen (AID 1220)
T3 sequence (P34949 whole entry): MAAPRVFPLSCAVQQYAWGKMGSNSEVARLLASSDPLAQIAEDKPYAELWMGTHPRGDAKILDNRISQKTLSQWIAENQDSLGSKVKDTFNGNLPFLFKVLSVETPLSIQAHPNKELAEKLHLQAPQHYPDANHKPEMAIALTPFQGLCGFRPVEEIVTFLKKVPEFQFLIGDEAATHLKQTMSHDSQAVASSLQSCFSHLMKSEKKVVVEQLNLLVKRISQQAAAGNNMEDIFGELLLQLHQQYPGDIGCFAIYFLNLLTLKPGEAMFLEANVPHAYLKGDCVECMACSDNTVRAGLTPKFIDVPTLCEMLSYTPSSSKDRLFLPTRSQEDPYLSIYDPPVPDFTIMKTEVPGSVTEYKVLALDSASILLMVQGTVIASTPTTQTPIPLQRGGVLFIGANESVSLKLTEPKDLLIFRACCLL

Paired box protein Pax-8 = Paired box protein Pax-8 (Homo sapiens, UniProt Q06710); experiment: PAX8 transcriptional activity inhibition in RMG-I – RMG-I cells, luciferase, cherry-pick, dose response (AID 687027); format: functional, cell-based;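 note: luciferase reporter driven by Pax8 target thyroperoxidase promoter measured by SteadyGlo luminescence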
Chain of Paired box protein Pax-8 (Q06710 whole entry): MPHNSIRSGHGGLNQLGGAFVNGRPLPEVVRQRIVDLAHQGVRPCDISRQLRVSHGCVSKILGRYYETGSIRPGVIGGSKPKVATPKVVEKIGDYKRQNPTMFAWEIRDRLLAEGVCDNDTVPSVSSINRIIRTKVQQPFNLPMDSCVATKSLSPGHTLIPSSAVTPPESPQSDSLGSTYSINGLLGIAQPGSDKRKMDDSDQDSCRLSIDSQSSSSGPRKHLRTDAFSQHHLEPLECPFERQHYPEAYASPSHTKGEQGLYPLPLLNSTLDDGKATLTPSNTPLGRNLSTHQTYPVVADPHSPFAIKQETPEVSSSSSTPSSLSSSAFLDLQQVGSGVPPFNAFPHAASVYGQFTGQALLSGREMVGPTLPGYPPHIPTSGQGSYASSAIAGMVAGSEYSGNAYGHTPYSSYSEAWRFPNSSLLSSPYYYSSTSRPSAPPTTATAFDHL

[9] = OVCAR-3 cell viability loss – plate reader, dry powder samples, PAX8 inhibitor project, dose response (AID 743044); format: functional, cell-based
[10] = IGROV1 cell killing – plate reader, dry powder samples, PAX8 inhibitor project, dose response (AID 743043); format: functional, cell-based; conditions: IGROV-1
[11] = OVCAR8 cell viability loss – plate reader, dry powder samples, PAX8 project, dose response (AID 743197); format: functional, cell-based; conditions: OVCAR-8
Prothrombin = Prothrombin (Homo sapiens, UniProt P00734); experiment: Thrombin 1536 HTS Dose Response Confirmation. [Related pubchem assays: 1046 (Thrombin 1536 HTS; hits were confirmed in this assay)]; format: functional
[12] = viability of uninfected HEp-2 cells – cell-based, HTS, cytotoxicity control for RSV inhibitor project, dose response (AID 2410); format: functional; conditions: human respiratory syncytial virus
[13] = blockers of HIV-1 envelope-mediated cell-cell fusion – cherry-pick, dose response (AID 652057); format: functional, cell-based
[14] = blockers of HIV-1 ZM109 envelope-driven cell-cell fusion – HeLa effector, CEM target cells, luciferase, cherry-pick, dose response (AID 652058); format: functional, cell-based;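 note: luciferase signal from HIV-1 Env mediated cell-cell fusion of effector and target cells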
[15] = off-target signal loss in HeLa-CEM21 co-culture – HeLa F-luc CTL cells, cherry-picked, counter-screen for HIV-1 Env fusion inhibitor project, dose response (AID 652040); format: functional, cell-based;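 note: potency for signal decrease marking cytotoxic or nonspecific inhibition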
[16] = HIV-1 AD8 envelope cell-cell fusion blockers – cherry-pick, dose response (AID 652062); format: functional, cell-based;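 note: luciferase signal from cell-cell fusion driven by HIV-1 clade B AD8 Env; potency is for inhibitors of fusion seen as a drop in luminescence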
[17] = target: DNA dC->dU-editing enzyme APOBEC-3A (Homo sapiens, UniProt P31941); experiment: Dose Response confirmation of small molecule APOBEC3A DNA Deaminase Inhibitors via a fluorescence-based single-stranded DNA deaminase assay. [Related pubchem assays (depositor defined):AID493011, AID493024]; format: functional
Chain of DNA dC->dU-editing enzyme APOBEC-3A (P31941 whole entry): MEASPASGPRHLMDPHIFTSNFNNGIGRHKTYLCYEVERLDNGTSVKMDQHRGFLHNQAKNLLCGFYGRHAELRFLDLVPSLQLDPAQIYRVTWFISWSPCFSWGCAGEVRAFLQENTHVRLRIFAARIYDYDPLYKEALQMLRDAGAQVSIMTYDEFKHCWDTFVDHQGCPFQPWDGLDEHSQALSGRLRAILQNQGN

[18] = target: DNA dC->dU-editing enzyme APOBEC-3G (Homo sapiens, UniProt Q9HC16); format: functional;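 note: Dose-response counterscreen measuring inhibition of APOBEC3G DNA deaminase activity, run while confirming APOBEC3A inhibitors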
Chain of DNA dC->dU-editing enzyme APOBEC-3G (Q9HC16 whole entry): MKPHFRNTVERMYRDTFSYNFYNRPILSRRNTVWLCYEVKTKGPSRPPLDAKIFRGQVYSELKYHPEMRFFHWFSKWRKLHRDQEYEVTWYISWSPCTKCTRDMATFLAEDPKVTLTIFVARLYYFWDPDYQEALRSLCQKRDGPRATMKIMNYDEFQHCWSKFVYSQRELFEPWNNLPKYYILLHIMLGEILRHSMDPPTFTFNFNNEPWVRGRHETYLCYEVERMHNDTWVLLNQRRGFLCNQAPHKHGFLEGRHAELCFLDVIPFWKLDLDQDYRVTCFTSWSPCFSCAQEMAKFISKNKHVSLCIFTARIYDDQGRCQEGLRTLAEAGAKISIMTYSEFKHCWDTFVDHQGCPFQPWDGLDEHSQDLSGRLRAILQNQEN

[19] = Trypanosoma cruzi growth suppression in host cells – NIH3T3 host cells, beta-gal luminescence, confirmation (AID 2044); format: functional, cell-based;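 note: intracellular parasites grown in NIH/3T3 mouse fibroblasts as host cells; luminescent beta-galactosidase reporter signal from transgenic T. cruzi replicating inside host cells; inhibitors lower the luminescence signal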
[20] = NIH3T3 cell viability loss – ATP luminescence, mouse fibroblasts, counter-screen, dose response (AID 2010); format: functional, cell-based;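 note: cells exposed to compound for about 90 hours before reading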
[21] = target: T4, Carboxy-terminal domain RNA polymerase II polypeptide A small phosphatase 1 (Homo sapiens, UniProt Q9GZU7); experiment: CTDSP1 inhibitors, concentration-response, biochemical, absorbance readout, ultra-high-throughput screen actives (AID 540297); format: functional
T4 sequence (Q9GZU7 whole entry): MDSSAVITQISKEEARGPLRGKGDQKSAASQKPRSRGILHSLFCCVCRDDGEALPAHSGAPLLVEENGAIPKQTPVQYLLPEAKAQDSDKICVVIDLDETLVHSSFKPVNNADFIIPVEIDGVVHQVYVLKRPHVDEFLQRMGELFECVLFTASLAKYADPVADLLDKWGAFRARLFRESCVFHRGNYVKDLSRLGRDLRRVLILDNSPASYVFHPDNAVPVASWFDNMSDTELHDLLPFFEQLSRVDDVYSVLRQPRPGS

[22] = target: Eukaryotic translation initiation factor 4E (Mus musculus, UniProt P63073); experiment: blockers of eIF4G binding by eIF4E – biochemical, TR-FRET, dose response (AID 855); format: functional;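 note: potency for disrupting eIF4E binding to eIF4GI seen as loss of FRET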
Chain of Eukaryotic translation initiation factor 4E (P63073 whole entry): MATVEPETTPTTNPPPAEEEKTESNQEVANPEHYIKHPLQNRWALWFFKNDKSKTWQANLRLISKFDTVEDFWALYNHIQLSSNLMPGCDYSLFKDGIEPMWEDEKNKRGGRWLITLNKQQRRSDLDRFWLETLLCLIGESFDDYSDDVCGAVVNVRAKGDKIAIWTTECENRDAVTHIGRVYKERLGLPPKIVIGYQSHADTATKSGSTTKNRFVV

Chain of Nonstructural protein 1 (Q194T2 whole entry): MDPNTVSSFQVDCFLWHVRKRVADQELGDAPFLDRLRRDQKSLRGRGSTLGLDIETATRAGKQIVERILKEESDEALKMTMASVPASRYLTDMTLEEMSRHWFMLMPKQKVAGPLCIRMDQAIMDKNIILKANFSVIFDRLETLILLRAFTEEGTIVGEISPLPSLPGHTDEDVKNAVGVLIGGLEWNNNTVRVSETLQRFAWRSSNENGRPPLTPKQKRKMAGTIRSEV

COc1ccc(N2CC(C(=O)N/N=C/c3cc([N+](=O)[O-])ccc3O)CC2=O)cc1 (stereo unspecified)
IC50 (Nonstructural protein 1): 17.8 µM (active)

Cc1ccc(Nc2nnc(SCC(=O)NCc3ccco3)s2)cc1
IC50 (Estrogen receptor): 28.8 µM (active)

Cc1ccc(-n2nc3c(=O)n(C(C)C(=O)NCCC4=CCCCC4)nc(C)c3c2C)cc1 (stereo unspecified)
IC50 [1]: 6.62 µM (active)

COc1ccccc1NC(=O)CSc1nnc(-c2ccc(NC(C)=O)cc2)n1C
IC50 [2]: > 109 µM (inactive) | IC50 [3]: > 83.3 µM (inactive)

COC(=O)C1=C(c2ccc(-c3ccccc3)c(F)c2)C[C@@H]2CC[C@H]1N2C(=O)N1CCCC1
IC50 [4]: > 80 µM (inactive) | AC50 [5]: 6.06 µM (active) | AC50 [6]: 6.77 µM (active) | IC50 [1]: 8.17 µM (active)

CCOC(=O)C1=C(Nc2ccc(OC)cc2)S/C(=C\c2cc(OC)c(O)c(OC)c2)C1=O
IC50 [7]: 4.24 µM (not active)

S=C(Nc1ccc2c[nH]nc2c1)Nc1ccc(Cl)cc1Cl
IC50 [8]: > 50 µM (not active)

CCC(C)N1C(=O)NC(=O)C2(Cc3c(ccc4ccccc34)N(C)C2)C1=O (stereo unspecified)
IC50 [8]: > 50 µM (not active)

C[C@@H]1CCCCO[C@@H](CN(C)Cc2ccc(C(F)(F)F)cc2)[C@H](C)CN([C@@H](C)CO)C(=O)c2cc(NC(=O)NC3CCCCC3)ccc2O1
AC50 (Paired box protein Pax-8): 8.39 µM (active) | AC50 [9]: 45.2 µM (active) | AC50 [10]: 50.9 µM (active) | AC50 [11]: 37.5 µM (active)

CS(=O)(=O)Nc1cccc(C(=O)CC2(O)C(=O)Nc3ccc(Br)cc32)c1 (stereo unspecified)
IC50 (Prothrombin): 0.525 µM (active)

Cc1ccc(Cl)cc1NS(=O)(=O)c1c(C)[nH]c(=O)[nH]c1=O
IC50 (Prothrombin): > 50 µM (not active)

COCC(=O)n1nc(-c2ccccc2)nc1NCc1cccs1
IC50 (Prothrombin): 0.467 µM (active)

CC(Cc1ccccn1)NC(=O)CCc1nnc(C2CCCCC2)o1 (stereo unspecified)
IC50 [2]: > 109 µM (inactive) | IC50 [3]: > 83.3 µM (inactive)

OCC(CO)(CO)/N=C/c1c(O)ccc2ccccc12
IC50 [8]: 38.6 µM (active)

CC(=O)NCCOC(=O)Nc1ccncc1
IC50 (Estrogen receptor): > 50 µM (not active)

O=C(c1ccccc1F)N1CC(=O)N2[C@@H](CO)[C@@H](c3ccc(C#Cc4ccc(F)cc4)cc3)[C@@H]2C1
AC50 (Paired box protein Pax-8): 5.77 µM (active) | AC50 [9]: 8.76 µM (active) | AC50 [10]: 19.2 µM (active) | AC50 [11]: 41.1 µM (active)

COc1ccc(OC)c(NS(=O)(=O)c2ccc(NC(C)=O)cc2)c1
IC50 [2]: > 109 µM (inactive) | IC50 [3]: > 83.3 µM (inactive)

O=C(CCC(=O)N1CCN(S(=O)(=O)c2ccc3ccccc3c2)CC1)Nc1cc(Cl)cc(Cl)c1
CC50 [12]: > 6.25 µM (active) | AC50 [13]: 3.61 µM (active) | AC50 [14]: 4.28 µM (active) | AC50 [15]: 6.16 µM (active) | AC50 [16]: 14.2 µM (active)

CCN1C(NCC2CC2)=N[C@@H](c2cccc(C(F)(F)F)c2)C(C(=O)OC)=C1C
IC50 [17]: 4.22 µM (active) | IC50 [18]: 6.71 µM (active)

N#C/C(=C\C1=C(N2CCOCC2)C(=C\c2ccccc2)/CC1)C(=O)Nc1ccccc1F
EC50 [19]: 1.01 µM (active) | EC50 [20]: > 60 µM (not active) | IC50 (Nonstructural protein 1): 13.3 µM (active)

Cc1onc(-c2ccccc2Cl)c1C(=O)NCCN1CCOCC1
IC50 [2]: > 109 µM (inactive) | IC50 [3]: > 83.4 µM (inactive)

CCc1ccc2[nH]c(=O)c(CN(Cc3ccc4c(c3)OCO4)C(=O)c3ccco3)cc2c1
IC50 (Estrogen receptor): 26.2 µM (active)

COc1ccccc1/C=c1\sc2nc(-c3ccco3)nn2c1=O
IC50 (Estrogen receptor): 17.5 µM (active) | IC50 [7]: 7.38 µM (active) | IC50 [21]: 5 µM (active)

NC(=O)c1c(NC(=O)Cn2nc(C(=O)O)c3ccccc3c2=O)sc2c1CCCC2
IC50 (Prothrombin): 24.3 µM (active)

C[C@@H]1CCCCO[C@@H](CN(C)Cc2ccc(Cl)c(Cl)c2)[C@H](C)CN([C@H](C)CO)C(=O)c2cc(NS(=O)(=O)c3ccc(Cl)cc3)ccc2O1
AC50 (Paired box protein Pax-8): 8.68 µM (active) | AC50 [10]: 59.2 µM (active) | AC50 [11]: > 70 µM (inactive)

Cc1ccc(C(=O)NC(C)C(c2cccs2)N2CCCC2)s1 (stereo unspecified)
IC50 (Prothrombin): > 50 µM (not active) | IC50 [2]: > 109 µM (inactive) | IC50 [3]: > 83.3 µM (inactive)

COc1cc(/C=C(/C#N)C(=O)NCCCc2ccccc2)ccc1OCC(=O)O
IC50 [17]: 1.61 µM (active) | IC50 [18]: 3.23 µM (active)

Cc1ccc(CNC(=O)c2ccc(-n3cccc3)cc2)cc1
IC50 [7]: 3.27 µM (active) | IC50 [22]: 50 µM (inactive)
